These results are taken from patent US11578083B2, “Pyrimidinium compounds and their mixtures for combating animal pests” (BASF SE, priority 2017, dated 2023).

What all share (assay type): in vivo
Test [1] has as its system boll weevil (Anthonomus grandis). The test can be described thus: Test 9 boll weevil, insect diet with eggs (mixtures). The protocol:
(§1) For evaluating control of boll weevil (Anthonomus grandis) the test unit consisted of 24-well-microtiter plates containing an insect diet and 20-30 A. grandis eggs.
(§2) The compounds or mixtures were formulated using a solution containing 75% water and 25% DMSO. Concentrations of formulated compounds or mixtures were sprayed onto the insect diet at 20 μl, using a custom built micro atomizer, at two replications.
(§3) For experimental mixtures in these tests identical volumes of both mixing partners at the desired concentrations respectively, were mixed together.
(§4) After application, microtiter plates were incubated at 23±1° C., 50±5% RH for 5 days. Egg and larval mortality was then visually assessed.

The test system of test [2] is vetch aphid (Megoura viciae). The test can be described thus: Test 7 vetch aphid, leaf disks (mixtures). The protocol: (§5) For evaluating control of vetch aphid (Megoura viciae) through contact or systemic means the test unit consisted of 24-well-microtiter plates containing broad bean leaf disks.
The compounds or mixtures were formulated using a solution containing 75% water and 25% DMSO. Concentrations of formulated compounds or mixtures were sprayed onto the leaf disks at 2.5 μl, using a custom built micro atomizer, at two replications.
as §3
After application, the leaf disks were air-dried and 5-8 adult aphids placed on the leaf disks inside the microtiter plate wells. The aphids were then allowed to suck on the treated leaf disks and incubated at 23±1° C., 50±5% RH for 5 days. Aphid mortality and fecundity was then visually assessed.

The subject of test [3] is brown planthopper (Nilaparvata lugens). The test can be described thus: Test 6 brown planthopper, foliar spray (mixtures). The note with it: solo application I-R-1, use rate 5 ppm. The protocol:
For evaluating control of brown planthopper (Nilaparvata lugens) by foliar spray method. Clean potted rice seedlings with upper leaf portion cut are properly labeled. Placed three potted rice plants per treatment concentration/combination on top of the rotating disc (270 mm) and sprayed with the 12 mL spray solution. Treated plants are allowed to air-dry in the laboratory for about an hour. After air-drying, covered each treated rice plant. Each treated plant was infested with brown planthoppers using a suction vacuum. Plants are maintained at 27° C.±1° C., 50±5% RH and 24 hours light conditions in a holding room. Percent mortality is recorded 7 days after infestation by counting both the dead and alive brown planthoppers on the plants and on the water.

Test [4] relates to boll weevil (Anthonomus grandis). Kind of test: Test 3 boll weevil, insect diet with eggs (mixtures). The protocol: as §1, §2, §3, §4
Test [5] concerns green peach aphid (Myzus persicae). The test can be described thus: Test 8 green peach aphid, artificial diet (mixtures).
From the text: For evaluating control of green peach aphid (Myzus persicae) through systemic means the test unit consisted of 96-well-microtiter plates containing liquid artificial diet under an artificial membrane.
The compounds or mixtures were formulated using a solution containing 75% water and 25% DMSO. Concentrations of formulated compounds or mixtures were pipetted into the aphid diet, using a custom built pipetter, at two replications.
as §3
After application, 5-8 adult aphids were placed on the artificial membrane inside the microtiter plate wells. The aphids were then allowed to suck on the treated aphid diet and incubated at 23±1° C., 50±5% RH for 3 days. Aphid mortality and fecundity was then visually assessed.

For test [6], the system named is Chilo suppressalis. The test can be described thus: B.3a Rice stem borer vial bioassay. The following applies: 72 h. The method, then: Field-collected rice straws were washed with tap water and cut for a certain of length. Straws were air dried before placing individually in vials (=replicate, 3×). About 125 μl test solution was sprayed per vial. Treated rice straws in vials were air dried under the laboratory hood. After air-drying, each straw was inoculated with 10 newly-emerged (0-day old) stem borer larvae. Vials were then covered. Set-up was kept in a holding room maintained at 27° C. and 65% RH for three days. At 3 days after inoculation, rice straws were manually dissected for larval mortality assessment. The data (Table C) show activity against two species of rice stem borers.

For test [7], the system named is Greenhouse Whitefly (Trialeurodes vaporariorum). Kind of test: Test 11 Greenhouse Whitefly, egg plant leaf disk (mixtures). The method, then: For evaluating control of Greenhouse Whitefly (Trialeurodes vaporariorum) the test unit consisted of 96-well-microtiter plates containing a leaf disk of egg plant leaf disk with white fly eggs.
The compounds or mixtures were formulated using a solution containing 75% water and 25% DMSO. Different concentrations of formulated compounds or mixtures were sprayed onto the insect diet at 2.5 μl, using a custom built micro atomizer, at two replications.
as §3
After application, microtiter plates were incubated at 23±1° C., 65±5% RH for 6 days. Mortality of hatched crawlers was then visually assessed.

For test [8], the system named is vetch aphid (Megoura viciae). The test can be described thus: Test 1 vetch aphid, leaf disks (mixtures). The note with it: Table 1, solo application I-R-1, use rate 20 ppm.
From the text: Synergism can be described as an interaction where the combined effect of two or more compounds is greater than the sum of the individual effects of each of the compounds. The presence of a synergistic effect in terms of percent control, between two mixing partners (X and Y) can be calculated using the Colby equation (Colby, S. R., 1967, Calculating Synergistic and Antagonistic Responses in Herbicide Combinations, Weeds, 15, 20-22):
When the observed combined control effect is greater than the expected combined control effect (E), then the combined effect is synergistic.
The analysis of synergism or antagonism between the mixtures or compositions was determined using Colby's equation.
as §5
The compounds or mixtures were formulated using a solution containing 75% water and 25% DMSO. Concentrations of formulated compounds or mixtures were sprayed onto the leaf disks at 2.5 μl, using a custom built micro atomizer, at two replications. […]
After application, the leaf disks were air-dried and 5-8 adult aphids placed on the leaf disks inside the microtiter plate wells. […] Aphid mortality and fecundity was then visually assessed.

Test [9] relates to Thrips (Dichromothrips corbetti). Kind of test: B.4 Thrips floral-immersion test. The following applies: 72 h. The protocol: B.4 Thrips (Dichromothrips Corbetti):
Dichromothrips corbetti adults used for bioassay are obtained from a colony maintained continuously under laboratory conditions. For testing purposes, the test compound is diluted in a 1:1 mixture of acetone:water (vol:vol), plus 0.01% vol/vol Alkamuls® EL 620 surfactant.
Thrips potency of each compound is evaluated by using a floral-immersion technique. Plastic petri dishes are used as test arenas. All petals of individual, intact orchid flowers are dipped into treatment solution and allowed to dry. Treated flowers are placed into individual petri dishes along with about 20 adult thrips. The petri dishes v then covered with lids. All test arenas are held under continuous light and a temperature of about 28° C. for duration of the assay. After 3 days, the numbers of live thrips are counted on each flower, and along inner walls of each petri dish. The percent mortality is recorded 72 hours after treatment.

A word on the mortality: it is the share of the test organisms that died. Lower therefore signals a weak lethal effect.

Consider `C[n+]1c([O-])c(-c2ccccc2)c(=O)n2c1SC[C@@H]2c1cnc(Cl)s1` [I-R-1, (3R)-3-(2-chlorothiazol-5-yl)-8-methyl-7-oxo-6-phenyl-2,3-dihydrothiazolo[3,2-a]pyrimidin-4-ium-5-olate], for which the Average control % in [1] (Table 9.1, solo application I-R-1, use rate 50 ppm) turned out to be 25%; in [1] (Table 9.2, solo application I-R-1, use rate 10 ppm), 25%; in test [2] (Table 7.1, solo application I-R-1, use rate 2 ppm) it was 25%; in test [2] (Table 7.2, solo application I-R-1, use rate 2 ppm) it was 25%; in test [3] (Table 6.1, after 7 days), 62%; in test [3] (Table 6.2, after 7 days), 62%. The Average control % in [4] (Table 3.1, solo application I-R-1, use rate 50 ppm) came to 0%; in test [4] (Table 3.2, solo application I-R-1, use rate 2 ppm), 0%; in test [4] (Table 3.3, solo application I-R-1, use rate 2 ppm), 0%; in test [5] (Table 8.1, solo application I-R-1, use rate 0.4 ppm), 0%; in test [5] (Table 8.2, solo application I-R-1, use rate 0.4 ppm) it was 0%; in test [7] (Table 11.1, solo application I-R-1, use rate 50 ppm), 25%. In addition, the Average control % in [7] (Table 11.2, solo application I-R-1, use rate 10 ppm) is recorded as 0%; in test [8] it was 0%. This compound had a mortality at 300 ppm in [6] of 83%. Further, the mortality at 10 ppm in [9] is 100%.
